Laboratory results: US5656206A, “Substituted naphthopyrans” (Transitions Optical, Inc., priority 1995, dated 1997)

Assay: Photochromic response rates on an optical bench (polymer test squares)
Format: physicochemical
Details: for ΔOD@ SATURATION: UV exposure continued for 20 minutes, test square; for ΔOD@ SATURATION / ΔOD/MIN SENSITIVITY: 75° F. (23.9° C.); for ΔOD/MIN SENSITIVITY: measured over first five (5) seconds of UV exposure, expressed per minute, BPA 2EO DMA / poly(ethyleneglycol) 600 dimethacrylate test square; for Bleach (T1/2): time for absorbance of activated form to reach one half the highest absorbance, room temperature (75° F., 23.9° C.), after removal of activating light; for LAMBDA MAX (VISIBLE): wavelength of maximum absorption of the activated (colored) form, in a diethylene glycol bis(allyl carbonate) composition
Protocol: Testing was done with the photochromic naphthopyrans of the Examples incorporated into polymeric samples by the following method. The quantity of naphthopyran calculated to yield a 1.5 times 10^-3 molal solution was added to a flask containing 50 grams of a monomer blend of 4 parts ethoxylated bisphenol A dimethacrylate (BPA 2EO DMA), 1 part poly(ethyleneglycol) 600 dimethacrylate, and 0.033 weight percent 2,2'-azobis(2-methyl propionitrile) (AIBN). The naphthopyran was dissolved into the monomer blend by stirring and gentle heating, if necessary. After a clear solution was obtained, it was poured into a flat sheet mold having the interior dimensions of 2.2 mm×6 inches (15.24 cm)×6 inches (15.24 cm). The mold was sealed and placed in a horizontal air flow, programmable oven set to increase the temperature from 40° C. to 95° C. over a 5 hour interval, hold the temperature at 95° C. for 3 hours and then lower it to 60° C. for at least 2 hours before the end of the curing cycle. After the mold was opened, the polymer sheet was cut using a diamond blade saw into 2 inch (5.1 centimeters) test squares.
The photochromic test squares prepared in Part A were tested for photochromic response rates on an optical bench. […] The bench was fitted with a 150 watt Xenon arc lamp, a remote controlled shutter, a copper sulfate bath acting as a heat sink for the arc lamp, a Schott WG-320 nm cut-off filter which removes short wavelength radiation; neutral density filter(s) and a sample holder in which the square to be tested was inserted. A collimated beam of light from a tungsten lamp was passed through the square at a small angle normal to the square. After passing through the square, the light from the tungsten lamp was directed through a photopic filter attached to a detector. The photopic filter passes wavelengths such that the detector mimics the response of the human eye. The output signals from the detector(s) were processed by a radiometer.
Change in optical density (ΔOD) was determined by inserting a test square in the bleached state into the sample holder, adjusting the transmittance scale to 100%, opening the shutter from the Xenon lamp to provide ultraviolet radiation to change the test square from the bleached state to an activated (i.e., darkened) state, measuring the transmittance in the activated state, and calculating the change in optical density according to the formula Δ OD=log(100/%Ta) where %Ta is the percent transmittance in the activated state and the logarithm is to the base 10.
The Δ OD/Min, which represents the sensitivity of the photochromic compound's response to UV light, was measured over the first five (5) seconds of UV exposure, then expressed on a per minute basis. The saturation optical density (OD) was taken under identical conditions as the Δ OD/Min, except UV exposure was continued for 20 minutes for the examples in Table 1. The lambda max reported in Table 1 is the wavelength in the visible spectrum at which the maximum absorption of the activated (colored) form of the photochromic compound in a diethylene glycol bis(allyl carbonate) composition occurs.

Row | SMILES | ΔOD@ SATURATION | ΔOD/MIN SENSITIVITY | Bleach (T1/2) | LAMBDA MAX (VISIBLE) | bleach rate, i.e., fade rate (in words) (conclusion from Table 1)
1 | COc1ccc(C2(c3ccc(OC)cc3)C=Cc3c(CO)c(C)c4ccc(OC)cc4c3O2)cc1 [Example 1, 2,2-bis(4-methoxyphenyl)-5-hydroxymethyl-6-methyl-9-methoxy-2H-naphtho[1,2-b]pyran] | 0.42 | 0.38 ΔOD/MIN | 5.05 min | 520 | –
2 | COc1ccc(C2(c3ccc(OC)cc3)C=Cc3c(CO)c(-c4ccccc4)c4ccccc4c3O2)cc1 [Example 2, 2,2-bis(4-methoxyphenyl)-5-hydroxymethyl-6-phenyl-2H-naphtho[1,2-b]pyran] | 0.26 | 0.32 ΔOD/MIN | 2.48 min | 506 | –
3 | COc1ccc(C2(c3ccc(OC)cc3)C=Cc3c(COC(C)=O)c(-c4ccccc4)c4ccccc4c3O2)cc1 [Example 3, 2,2-bis(4-methoxyphenyl)-5-acetoxymethyl-6-phenyl-2H-naphtho[1,2-b]pyran] | 0.25 | 0.33 ΔOD/MIN | 1.82 min | 508 | –
4 | COc1ccc(C2(c3ccc4c(c3)CCO4)C=Cc3c(C(=O)N4CCCCC4)c(C)c4ccc(OC)cc4c3O2)cc1 (centres unmarked) [Example 4, 2-(4-methoxyphenyl)-2-(2,3-dihydrobenzofuran-5-yl)-5-piperidinocarbonyl-6-methyl-9-methoxy-2H-naphtho[1,2-b]pyran] | 0.65 | 0.34 ΔOD/MIN | > 13.3 min | 535 | fades much slower
